Among the data in PubChem BioAssay (NCI) are TGI values, retold here.

What all share (test): NCI-60 cell line screen, 48 h
Test [1] concerns 786-0 renal.
The subject of test [2] is CAKI-1 renal.
The subject of test [3] is CCRF-CEM leukemia.
Test [4] has as its system DU-145 prostate.
Test [5] concerns HCT-116 colon.
For test [6], the system named is HS 578T breast.
For test [7], the system named is K-562 leukemia.
Test [8] concerns KM12 colon.
The test system of test [9] is MOLT-4 leukemia.
Test [10] relates to NCI/ADR-RES ovarian.
For test [11], the system named is OVCAR-4 ovarian.
The test system of test [12] is OVCAR-5 ovarian.
Test [13] relates to RPMI-8226 leukemia.
In test [14] the test system is RXF 393 renal.
Test [15] has as its system SF-268 CNS.
The test system of test [16] is SF-295 CNS.
For test [17], the system named is SK-OV-3 ovarian.
Test [18] deals with UACC-257 melanoma.
The test system of test [19] is UO-31 renal.

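Compound exposure: 48 hours, 5 concentrations, 96-well plates. Definition used: TGI = concentration required for complete inhibition of growth.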

Regarding `c1ccc(C(=NNc2cnc3ccccc3n2)c2ccccn2)cc1`, the TGI was 15.4 µM in test [1]; 12.2 µM in test [2]; 28.3 µM in [3]; more than 61.3 µM in [4]; more than 36.6 µM in test [5]; 37.9 µM in test [6]. The TGI in test [7] is more than 67.5 µM; in [8], 20.5 µM; in test [9], 11.4 µM; in test [10], 2.15 µM; in test [11] it was 28 µM; in test [12], 27.1 µM. For the same compound, the TGI in [13] is more than 36.8 µM; in [14] it was 21.5 µM; in test [15], 13.6 µM; in test [16], 12.8 µM; in test [17] it was more than 44.6 µM; in test [18], 17.5 µM. This compound also had a TGI in test [19] of 3.25 µM.
`Cl/C(=C\C=Nc1ccc(I)cc1)c1ccc2ccccc2c1`: the TGI in [1] is 40.7 µM; in test [2] it was 29 µM; in test [3] it was more than 25.1 µM; in test [4], more than 61.4 µM; in test [5], 33.2 µM; in test [6] it was more than 87.7 µM. Moreover, the TGI in test [7] is 31.8 µM; in test [8], 33.5 µM; in test [9], 13.6 µM; in test [10], 32.5 µM; in test [11], 46.5 µM; in test [12], more than 64.6 µM. Besides, the TGI in test [13] turned out to be 56.5 µM; in test [14], 61.8 µM; in test [15], 65.4 µM; in test [16], 51.3 µM; in [17] it was 74.4 µM; in test [18], 33.8 µM. In test [19], this compound returned a TGI of more than 55.9 µM.
For the compound `O=C1C(=Cc2cccc(O)c2)N=C(c2ccccc2)N1n1c(-c2ccccc2)nc2ccccc2c1=O`, the TGI is more than 100 µM in [1]; 85.8 µM in test [2]; 75.5 µM in test [3]; 74.5 µM in test [4]; 43.2 µM in test [5]; 76.8 µM in [6]. The TGI in test [7] was more than 100 µM; in test [8], 56.4 µM; in test [9], 44.2 µM; in test [10], more than 100 µM; in test [11], more than 100 µM; in test [12], 78.3 µM. The TGI in [13] is 50.2 µM; in [14], 83.8 µM; in test [15], 87.5 µM; in test [16], 65.6 µM; in test [17], more than 100 µM; in test [18], 81.9 µM. Besides, the TGI in test [19] is 61.1 µM.
As to `O=c1c2cc([N+](=O)[O-])ccc2n2n1CCCC2`, the TGI in [1], in [2], in test [3], in [4], in test [5] and in test [6] was more than 100 µM throughout. Moreover, the TGI in test [7], in test [8], in test [9], in [10], in [11] and in [12] was more than 100 µM in each case. Moreover, the TGI in [13], in [14], in test [15], in test [16], in test [17] and in [18] was more than 100 µM in each case. Moreover, in [19], the TGI was more than 100 µM.
Consider `CCOC(=O)C(NCc1cccc(C(F)(F)F)c1)(NC(=O)CC)C(F)(F)F` (stereo unspecified), for which the TGI in [1], in test [2], in [3], in test [4], in [5] and in test [6] was more than 100 µM each time. For the same compound, the TGI in [7], in test [8], in [9], in test [10], in test [11] and in test [12] was more than 100 µM each time. Besides, the TGI in test [13], in test [14], in test [15], in test [16], in test [17] and in test [18] was more than 100 µM throughout. In test [19], the TGI was more than 100 µM.
In the case of `[O-][n+]1onc2c1/C(=N/O)CCC2`, the TGI in [1], in [2], in [3], in test [4], in test [5] and in test [6] was more than 100 µM throughout. Besides, the TGI in [7], in test [8], in [9], in test [10], in [11] and in [12] was more than 100 µM throughout. Also, the TGI in test [13], in [14], in [15], in [16], in [17] and in test [18] was more than 100 µM throughout. Further, the TGI in test [19] is more than 100 µM.
For the compound `COc1ccc(/C(CC2OC(=O)c3ccccc32)=N\NC(=O)C[N+](C)(C)C)cc1` (stereo unspecified), the TGI is 69.3 µM in [1]; more than 100 µM in [2]; 72 µM in [3]; 63.4 µM in test [4]; 81.9 µM in [5]; more than 100 µM in test [6]. In addition, the TGI is 48.4 µM in test [7]; 52 µM in test [8]; 70.2 µM in test [9]; 56.7 µM in test [10]; 78.5 µM in test [11]; more than 100 µM in [12]. In addition, the TGI in [13] is 39.6 µM; in [14], 77.6 µM; in test [15], more than 100 µM; in [16], more than 100 µM; in [17], more than 100 µM; in test [18], 91.8 µM. The compound also registered a TGI in [19] of 79.6 µM.
On to `COc1cc(Nc2nc3ccc(C(F)(F)F)cc3nc2C(=O)O)cc(OC)c1OC`, for which the TGI was 74.6 µM in test [1]; 61.7 µM in test [2]; more than 100 µM in test [3]; 80.6 µM in [4]; 34.9 µM in test [5]; 54.8 µM in [6]. In addition, the TGI in [7] was more than 100 µM; in [8], 59.4 µM; in [9], more than 100 µM; in [10], 45.5 µM; in test [11], 52.6 µM; in test [12], more than 100 µM. Further, the TGI in test [13] was 91.3 µM; in [14], 54 µM; in test [15], 46.8 µM; in test [16], 81.9 µM; in test [17], more than 100 µM; in [18] it was 43 µM. This compound returned a TGI in [19] of 33.8 µM.
`CN(C)/C=N/NC(=O)/C(C#N)=C/N(C)C`: the TGI in [1], in [2], in test [3], in test [4], in [5] and in test [6] was more than 100 µM in each case. For the same compound, the TGI in [7], in [8], in test [9], in [10], in test [11] and in [12] was more than 100 µM in each case. Also, the TGI in test [13], in test [14], in [15], in test [16], in [17] and in test [18] was more than 100 µM throughout. For the same compound, in test [19], the TGI was more than 100 µM.
Regarding `O=C(c1cc2c(c3ccccc13)NCCN=C2C(F)(F)F)C(F)(F)F`, the TGI was 84.8 µM in test [1]; more than 100 µM in test [2]; more than 100 µM in test [3]; more than 100 µM in [4]; more than 100 µM in test [5]; 40.6 µM in [6]. Further, the TGI was 35.4 µM in [7]; more than 100 µM in [8]; 38 µM in test [9]; more than 100 µM in test [10]; more than 100 µM in test [11]; more than 100 µM in test [12]. Further, the TGI in test [13] is 27.4 µM; in [14], more than 100 µM; in test [15], more than 100 µM; in [16] it was 50.1 µM; in test [17] it was 93.2 µM; in test [18], 42.7 µM. This compound also showed a TGI in test [19] of more than 100 µM.
Consider `O=c1c2cc([N+](=O)[O-])ccc2nc2n1CCCCC2`, for which the TGI in test [1], in [2], in test [3], in test [4], in test [5] and in test [6] was more than 100 µM in each case. Further, the TGI in [7], in test [8], in [9], in test [10], in test [11] and in [12] was more than 100 µM in each case. Besides, the TGI in test [13], in test [14], in [15], in [16], in test [17] and in test [18] was more than 100 µM in each case. The compound also came in with a TGI in test [19] of more than 100 µM.
Take `O=C1C(Cl)C(c2cc3cc(Br)ccc3nc2Cl)N1c1ccc(Cl)cc1` (stereo unspecified): the TGI is 9.22 µM in [1]; 9.3 µM in test [2]; 11.4 µM in test [3]; 19.7 µM in test [4]; 12.5 µM in test [5]; more than 25 µM in test [6]. Besides, the TGI is 19.8 µM in [7]; more than 25 µM in [8]; 10.6 µM in test [9]; 16.7 µM in test [10]; 9.4 µM in test [11]; more than 25 µM in test [12]. Further, the TGI is 14.1 µM in test [13]; 10.6 µM in test [14]; 9.69 µM in [15]; more than 25 µM in [16]; more than 25 µM in test [17]; 12.6 µM in test [18]. In [19], this compound had a TGI of 3.28 µM.
For the compound `CC[C@]12C=CCN3CC[C@@]4(c5cc(Br)c(OC)cc5N(C)[C@H]4[C@@](O)(C(=O)N[C@@H](Cc4ccc(O)cc4)C(=O)OC)[C@@H]1O)[C@@H]32`, the TGI in test [1] is more than 100 µM; in [2] it was 77.9 µM; in test [3], 44 µM; in test [4], more than 100 µM; in [5], more than 100 µM; in test [6], 54.2 µM. Further, the TGI in test [7] is more than 100 µM; in test [8], 38.5 µM; in [9] it was 62.3 µM; in [10], 62.3 µM; in test [11] it was 40 µM; in test [12], more than 100 µM. Further, the TGI in [13] was 36 µM; in test [14], 38.4 µM; in [15], 52.4 µM; in [16], 38.7 µM; in test [17], more than 100 µM; in test [18], 33.9 µM. In test [19], this compound registered a TGI of 98.6 µM.
`O[C@@H]1C[C@H]2N3CC[C@@]2(c2cc4c(cc2C3)OCO4)[C@H]2O[C@@H]12`: the TGI in [1], in test [2], in [3], in test [4], in test [5] and in test [6] was more than 100 µM throughout. For the same compound, the TGI in [7], in test [8], in [9], in test [10], in test [11] and in test [12] was more than 100 µM in each case. Moreover, the TGI in test [13], in test [14], in test [15], in test [16], in [17] and in test [18] was more than 100 µM in each case. Also, in test [19], the TGI is more than 100 µM.
